From patent EP4692095A1, “SALT CRYSTAL FORM OF QUATERNARY FUSED RING COMPOUND, AND PREPARATION METHOD THEREFOR AND USE THEREOF” (Jiangsu Hansoh Pharmaceutical Group Co., Ltd., priority 2023, dated 2024)

Assays:
[1] = Thermodynamical stability experiment (polymorph screening by slurrying, XRPD); assay type: physicochemical
Protocol: An organic solvent with certain solubility was selected, and the crystal form A of the p-tosylate of the compound was suspended in the solvent system. The resulting system was slurried by stirring at room temperature for 2 weeks, and centrifuged. The supernatant was discarded. After the solid was dried under vacuum at 50°C (-0.1 MPa) for 16 h, the XRPD pattern of the solid was measured and compared with the XRPD of the salt of the starting compound.

[2] = Pharmacokinetic study in rats; assay type: in vivo; conditions: for AUC(0-inf) / Cmax / MRT / Tmax / half-life: in vivo, suspension in 0.5% HPMC K4M
Protocol: (§1) The crystal form A of the p-tosylate of the compound was fully suspended in an aqueous solution of 0.5% HPMC (hydroxypropylmethyl cellulose) K4M, and then administered to rats by gavage at a dosage of 10 mg/kg and 30 mg/kg, with three rats in each parallel experiment. The amount of the compound was fully converted into the amount of an equivalent free base.

[3] = Thermodynamical stability experiment (polymorph screening by slurrying, XRPD); assay type: physicochemical; conditions: comparison of DSC patterns of crystal forms A-E
[4] = Pharmacokinetic study in dogs; assay type: in vivo, beagle dogs
Protocol: as §1, with “to beagle dogs” for “to rats”, “of 20” for “of 10”, “and a dose volume of 5 mL/kg,” for “and 30 mg/kg,”, “three dogs” for “three rats”

[5] = Dynamic vapor sorption experiment; assay type: physicochemical
Protocol: The crystal form A of the p-tosylate of the compound was placed in saturated water vapor with different relative humidities to reach a dynamic equilibrium between the compound and the water vapor, and the percentage of hygroscopic weight gain of the compound after reaching the equilibrium was calculated.

[6] = system: human chronic myeloid leukemia cell strain KCL22-s; test: Efficacy on subcutaneous xenograft tumor model of KCL22-s; conditions: oral, dosing cycle 15 days
[7] = system: human chronic granulocytic leukemia cells KCL22-s; test: Inhibition of proliferation of tumor cell strains carrying BCR-ABL1 fusion mutations (CellTiter-Glo); assay type: cell-based; conditions: KCL22-s (imatinib-sensitive strain), 72 h
Description: (§2) The test objective was to evaluate the inhibitory activity of the compounds of the present invention against proliferation of human erythroleukemia cells K562, human peripheral blood basophilic leukemia cells Ku812, and human chronic granulocytic leukemia cells KCL22-s and KCL22-r cultured in vitro.
(§3) CellTiter-Glo® Luminescent Cell Viability Assay was used to detect the inhibitory effect of drugs on tumor cell proliferation and growth. The logarithmic growth phase cells cultured overnight were directly taken, pipetted up and down, mixed and counted, the cell density was adjusted according to different cell density requirements, and the cells were prepared into a cell suspension and plated on a 96-well plate. Drugs at different concentrations were added, three replicate wells were set for each concentration, and corresponding solvent controls were set. The maximum concentration of compound detected was 500 nM, with 3-fold gradient dilution, and a total of 9 concentrations (500-0.076 nM). The cells with the compound being added were cultured for another 72 h at 37°C and 5% CO2. The culture plate and its contents were equilibrated to room temperature, the CellTiter-Glo® reagent was added, the contents was mixed on a shaker for 3 min to induce cell lysis, the culture plate was further incubated at room temperature in the dark for 10 min, and the chemiluminescence signal value was determined by a microplate reader (BioTek SynergyH1).

[8] = system: human peripheral blood basophilic leukemia cells Ku812; test: as above; assay type: cell-based; conditions: 72 h
Description: as §2, §3

[9] = system: human chronic granulocytic leukemia cells KCL22-r; test: as above; assay type: cell-based; conditions: KCL22-r (imatinib-resistant strain), 72 h
Description: as §2, §3

[10] = system: human erythroleukemia cells K562; test: as above; assay type: cell-based; conditions: 72 h
Description: as §2, §3

[11] = target: ABL1 WT kinase (Homo sapiens, UniProt P00519); test: In vitro inhibitory activity against ABL1 WT kinase (capillary electrophoresis, substrate peptide phosphorylation); assay type: biochemical; conditions: Maximum concentration 1 µM
Protocol: Capillary electrophoresis was used to detect the phosphorylation conversion rate of the substrate peptide to determine the IC50 value of the test compound for inhibiting the kinase (ABL1-WT). The maximum concentration of the compound tested in the test was 1000 nM, with 3-fold dilution, and a total of 12 concentrations (1000 - 0.0056 nM). First, an enzyme reaction system (the concentration of enzyme ABL1-WT was 1.3 nM, the concentration of substrate FLPeptide2 was 1.5 µM, and the reaction factor was 10 mM MgCl2) was prepared. After incubation at room temperature for 30 min, 5 µL of 4×ATP solution was added to start the enzyme reaction. After reacting at room temperature for 90 min, the reaction was stopped by adding a stop buffer (containing 0.5 M EDTA). The sample was analyzed using an EZ reader (analysis conditions: pressure -1.5PSI, upper voltage current -2250V, lower voltage current -500V, separation time 40 sec, system delay 100.0 sec).
From the conversion rate read by EZ Reader, the remaining activity was calculated according to the following formula. Remaining Activity (%) = 100% × (CRSample −CRLC)/(CRHC −CRLC) [formula]
IC50 was calculated using XLfit, and IC50 was calculated by Formula 201 as the fitting formula.

[12] = system: Ba/F3 BCR-ABL1-E255K; test: Inhibition of proliferation of BaF3 cells overexpressing BCR-ABL1 mutations (CellTiter-Glo); assay type: cell-based, Mouse; conditions: 72 h
Description: (§4) The test objective was to evaluate the inhibitory activity of the compounds of the present invention against proliferation of the Ba/F3 BCR-ABL1-T315I, Ba/F3 BCR-ABL1-E255K, Ba/F3 BCR-ABL1-E255V, and Ba/F3 BCR-ABL1-G250E mutation models of mouse primary B cells cultured in vitro.
(§5) CellTiter-Glo® Luminescent Cell Viability Assay was used to detect the inhibitory effect of drugs on tumor cell proliferation and growth. The logarithmic growth phase cells cultured overnight were directly taken, pipetted up and down, mixed and counted, the cell density was adjusted according to different cell density requirements, and the cells were prepared into a cell suspension and plated on a 96-well plate. Drugs at different concentrations were added, 3 replicate wells were set for each concentration, and corresponding vehicle controls were set. The maximum test concentration in Ba/F3 BCR-ABL1-T315I and Ba/F3 BCR-ABL1-E255K cells was 10000 nM, with 3.16-fold gradient dilution and a total of 9 concentrations (10000-1.0058 nM). The maximum concentration of the compounds detected in other cells was 500 nM, with 3.16-fold gradient dilution, and a total of 9 concentrations (500-0.0503 nM). The cells with the compound being added were cultured for another 72 h at 37°C and 5% CO2. The culture plate and its contents were equilibrated to room temperature, the CellTiter-Glo® reagent was added, the contents were mixed on a shaker for 5 min to induce cell lysis, the culture plate was further incubated at room temperature in the dark for 20 min, and the luminescence was read with a microplate reader.

[13] = system: Ba/F3 BCR-ABL1-E255V; test: as above; assay type: cell-based, Mouse; conditions: 72 h
Description: as §4, §5

[14] = system: Ba/F3 BCR-ABL1-T315I; test: as above; assay type: cell-based, Mouse; conditions: 72 h
Description: as §4, §5

[15] = system: Ba/F3 BCR-ABL1-G250E; test: as above; assay type: cell-based, Mouse; conditions: 72 h
Description: as §4, §5

[16] = dog, in vivo, po, beagle dogs, gavage 20 mg/kg, suspension in 0.5% HPMC K4M

Chain of ABL1 WT kinase (P00519 whole entry): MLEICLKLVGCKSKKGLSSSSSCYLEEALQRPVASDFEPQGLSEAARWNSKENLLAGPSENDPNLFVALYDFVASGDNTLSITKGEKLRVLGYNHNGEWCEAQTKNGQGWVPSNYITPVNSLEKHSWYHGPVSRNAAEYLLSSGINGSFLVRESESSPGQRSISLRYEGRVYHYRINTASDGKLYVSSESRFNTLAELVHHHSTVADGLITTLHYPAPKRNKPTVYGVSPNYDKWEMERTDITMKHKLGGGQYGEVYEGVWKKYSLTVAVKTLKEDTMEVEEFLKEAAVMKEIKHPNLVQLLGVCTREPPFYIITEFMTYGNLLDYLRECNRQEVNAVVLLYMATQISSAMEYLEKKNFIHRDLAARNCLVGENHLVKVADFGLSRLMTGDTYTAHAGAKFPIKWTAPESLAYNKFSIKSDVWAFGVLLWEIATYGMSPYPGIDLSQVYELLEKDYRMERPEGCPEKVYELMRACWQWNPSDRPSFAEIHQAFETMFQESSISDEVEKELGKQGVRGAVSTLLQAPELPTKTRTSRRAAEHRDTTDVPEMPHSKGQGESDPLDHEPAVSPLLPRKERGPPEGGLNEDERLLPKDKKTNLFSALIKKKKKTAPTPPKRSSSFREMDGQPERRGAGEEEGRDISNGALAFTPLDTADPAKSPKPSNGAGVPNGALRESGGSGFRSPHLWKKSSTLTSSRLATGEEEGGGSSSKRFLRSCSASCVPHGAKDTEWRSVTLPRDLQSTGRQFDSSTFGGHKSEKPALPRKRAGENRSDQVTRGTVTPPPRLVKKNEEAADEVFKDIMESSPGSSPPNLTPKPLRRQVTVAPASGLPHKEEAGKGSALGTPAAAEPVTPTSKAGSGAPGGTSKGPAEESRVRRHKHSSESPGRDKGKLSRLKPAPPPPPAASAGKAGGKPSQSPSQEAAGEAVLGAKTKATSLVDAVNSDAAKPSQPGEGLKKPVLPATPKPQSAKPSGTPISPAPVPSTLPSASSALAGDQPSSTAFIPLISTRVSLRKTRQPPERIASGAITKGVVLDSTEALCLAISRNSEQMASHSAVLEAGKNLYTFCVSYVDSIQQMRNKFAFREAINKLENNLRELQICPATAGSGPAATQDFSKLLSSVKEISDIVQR

Molecule: (3R)-N-(4-(chlorodifluoromethoxy)phenyl)-2-(difluoromethyl)-3-methyl-3,4,5a,6-tetrahydro-5-oxa-1,2a,6,8-tetraazabenzo[4,5]cyclooctyl[1,2,3-cd]indene-11-carboxamide [crystal form A of the p-tosylate]
- Crystal form results ([1]; Initial (before slurrying)): Form A
- Crystal form results ([1]; slurried in 2-butanone, room temperature, 2 weeks, XRPD): Form A
- Crystal form results ([1]; slurried in 2-methyltetrahydrofuran, room temperature, 2 weeks, XRPD): Form A
- Crystal form results ([1]; slurried in 3-pentanone, room temperature, 2 weeks, XRPD): Form A
- Crystal form results ([1]; slurried in Acetone, room temperature, 2 weeks, XRPD): Form A
- Crystal form results ([1]; slurried in Acetonitrile, room temperature, 2 weeks, XRPD): Form A
- Crystal form results ([1]; slurried in Chloroform, room temperature, 2 weeks, XRPD): Form A
- Crystal form results ([1]; slurried in Dichloromethane, room temperature, 2 weeks, XRPD): Form A
- Crystal form results ([1]; slurried in Ethanol, room temperature, 2 weeks, XRPD): Form A
- Crystal form results ([1]; slurried in Ethyl acetate, room temperature, 2 weeks, XRPD): Form A
- Crystal form results ([1]; slurried in Ethyl formate, room temperature, 2 weeks, XRPD): Form A
- Crystal form results ([1]; slurried in Isopropanol, room temperature, 2 weeks, XRPD): Form A
- Crystal form results ([1]; slurried in Isopropyl acetate, room temperature, 2 weeks, XRPD): Form A
- Crystal form results ([1]; slurried in Methanol, room temperature, 2 weeks, XRPD): Form A
- Crystal form results ([1]; slurried in Tetrahydrofuran, room temperature, 2 weeks, XRPD): Form A
- Crystal form results ([1]; slurried in Toluene, room temperature, 2 weeks, XRPD): Form A
- Crystal form results ([1]; slurried in n-heptane, room temperature, 2 weeks, XRPD): Form A
- pharmacokinetics in rats (in words) ([2]; gavage, dose of 30 mg/kg): good metabolic properties
- thermodynamic stability among crystal forms of the p-tosylate [3]: the most thermodynamically stable crystal form among these crystal forms
- pharmacokinetics in dogs (in words) ([4]; gavage, 20 mg/kg): good metabolic properties, exposure dosage, and significantly improved bioavailability
- crystal form (XRPD pattern) after hygroscopic-dehygroscopic cycles ([5]; 2 cycles at relative humidity of 0-95%): remained unchanged
- hygroscopic weight gain ([5]; at RH 80%): 0.3545%
- stability in a humid environment ([5]; conclusion in words): stable in a humid environment

Molecule: C[C@@H]1COC2NC=NC=C2c2cc(C(=O)Nc3ccc(OC(F)(F)Cl)cc3)cc3nc(C(F)F)n1c23 (some centres unmarked) [Crystal form A of p-tosylate]
- AUC(0-inf) ([2]; Rat PO 10 mg/kg): 2600 ng·h/mL
- Cmax ([2]; Rat PO 10 mg/kg): 881 ng/mL
- MRT ([2]; Rat PO 10 mg/kg): 2.86 h
- Tmax ([2]; Rat PO 10 mg/kg): 1 h
- half-life ([2]; Rat PO 10 mg/kg): 3.55 h
- AUC(0-inf) ([2]; Rat PO 30 mg/kg): 15600 ng·h/mL
- Cmax ([2]; Rat PO 30 mg/kg): 4510 ng/mL
- MRT ([2]; Rat PO 30 mg/kg): 2.97 h
- Tmax ([2]; Rat PO 30 mg/kg): 1 h
- half-life ([2]; Rat PO 30 mg/kg): 2.71 h
- F ([4]; beagle dogs, gavage 20 mg/kg, suspension in 0.5% HPMC K4M): 68.6%
- AUC(0-inf) [4, 16]: 40400 ng·h/mL
- Cmax [4, 16]: 5720 ng/mL
- MRT [4, 16]: 5.47 h
- Tmax [4, 16]: 1.33 h
- half-life [4, 16]: 5.58 h

Molecule: Cc1ccc(NC(=O)c2ccc(CN3CCN(C)CC3)cc2)cc1Nc1nccc(-c2cccnc2)n1 [Imatinib]
- T/C ([6]; 75 mg/kg qd): 46.92%
- TGI ([6]; 75 mg/kg qd): 56.03%

Molecule: p-tosylate of (3R)-N-(4-(chlorodifluoromethoxy)phenyl)-2-(difluoromethyl)-3-methyl-3,4,5a,6-tetrahydro-5-oxa-1,2a,6,8-tetraazabenzo[4,5]cyclooctyl[1,2,3-ed]indene-11-carboxamide [Example 1]
- IC50 [7]: 2.99 nM
- IC50 [8]: 4.13 nM
- IC50 [9]: 14.6 nM
- IC50 [10]: 13 nM
- IC50 [11]: 0.43 nM
- T/C ([6]; 1.5 mg/kg bid): 7.05%
- TGI ([6]; 1.5 mg/kg bid): 98.20%
- Tumor volume ([6]; 1.5 mg/kg bid): 143±35 mm^3
- T/C ([6]; 3 mg/kg bid): 0.69%
- TGI ([6]; 3 mg/kg bid): 187.08%
- Tumor volume ([6]; 3 mg/kg bid): 14±5 mm^3
- T/C ([6]; 3 mg/kg qd): 3.98%
- TGI ([6]; 3 mg/kg qd): 127.26%
- Tumor volume ([6]; 3 mg/kg qd): 81±19 mm^3
- T/C ([6]; 7.5 mg/kg bid): 0.52%
- TGI ([6]; 7.5 mg/kg bid): 190.62%
- Tumor volume ([6]; 7.5 mg/kg bid): 11±7 mm^3
- IC50 [12]: 26.3 nM
- IC50 [13]: 7.15 nM
- IC50 [14]: 46.8 nM
- IC50 [15]: 5.36 nM
